Data set [1] deals with Serine/threonine-protein kinase B-raf (Homo sapiens, UniProt P15056, V600E). The experiment in a line: Inhibition of B-Raf V600E mutant.
A short description of data set [2]: Permeability across human Caco2 cells. It counts as ADME, cell-based. The settings on record: Caco-2, read-out: permeability.
A short description of data set [3]: Cmax in mouse at 25 mg/kg, po. Details: dose 25 mg/kg, route oral. The following applies: in vivo. It counts as ADME, organism-based.
Data set [4] can be described thus: AUC (0 to infinity) in mouse at 25 mg/kg, po. In kind it is ADME, organism-based. On the set-up: time infinity, dose 25 mg/kg, route oral. The following applies: plasma.

We go through 31 compounds from ChEMBL document CHEMBL1667830, “Non-oxime inhibitors of B-Raf(V600E) kinase” (Bioorg Med Chem Lett, 2011).

Usually pIC50 stands for −log10 of the IC50, conventionally taken in molar units. A word on the Cmax: it is the peak of the concentration-time curve. What is called AUC(0-inf) is the area under the concentration-time curve extrapolated to infinity. A high value points to more exposure.

pIC50: −log10 of the molar value.

Sequence of Serine/threonine-protein kinase B-raf (P15056 2-766 V600E limits assumed): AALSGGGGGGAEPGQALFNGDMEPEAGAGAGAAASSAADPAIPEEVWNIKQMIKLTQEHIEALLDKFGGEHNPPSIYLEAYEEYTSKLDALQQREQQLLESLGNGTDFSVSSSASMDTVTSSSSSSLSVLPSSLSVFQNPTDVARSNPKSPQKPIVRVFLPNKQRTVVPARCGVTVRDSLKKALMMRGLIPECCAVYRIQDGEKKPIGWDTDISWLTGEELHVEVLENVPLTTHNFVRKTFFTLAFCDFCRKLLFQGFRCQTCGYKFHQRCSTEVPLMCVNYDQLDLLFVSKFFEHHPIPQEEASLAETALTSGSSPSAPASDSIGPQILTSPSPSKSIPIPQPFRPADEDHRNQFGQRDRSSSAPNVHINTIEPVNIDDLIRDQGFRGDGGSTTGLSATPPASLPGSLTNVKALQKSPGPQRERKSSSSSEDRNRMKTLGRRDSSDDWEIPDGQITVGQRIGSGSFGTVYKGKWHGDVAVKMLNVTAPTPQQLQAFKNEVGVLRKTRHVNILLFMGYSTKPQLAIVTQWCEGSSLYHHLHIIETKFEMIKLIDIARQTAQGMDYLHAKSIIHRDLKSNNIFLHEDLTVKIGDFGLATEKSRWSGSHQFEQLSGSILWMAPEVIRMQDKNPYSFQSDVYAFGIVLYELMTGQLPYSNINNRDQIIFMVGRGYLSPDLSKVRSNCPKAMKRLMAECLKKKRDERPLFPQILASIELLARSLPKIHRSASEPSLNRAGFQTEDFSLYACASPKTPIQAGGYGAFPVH

As to `Oc1cccc2cc(Nc3c(-c4ncccn4)oc4cnccc34)ccc12`, the negative-log IC50 (pIC50) in data set [1] is 9.00. `CC(C)NC(=O)c1oc2cnccc2c1Nc1ccc(Cl)c2[nH]ncc12` gave a negative-log IC50 (pIC50) in data set [1] of 8.57. Turning to `CCOC(=O)c1oc2cnccc2c1Nc1ccc2c(N)cccc2c1`, the negative logarithm of the IC50 (pIC50) in data set [1] is 7.28. `OCCCc1n[nH]c2c(Cl)ccc(Nc3c(-c4ncccn4)oc4cnccc34)c12` showed a pIC50 in data set [1] of 9.10. Compared with the last compound, the pIC50 is 1.82 log units higher.

`CCc1n[nH]c2c(Cl)ccc(Nc3c(-c4ncccn4)oc4cnccc34)c12` had a negative-log IC50 (pIC50) in data set [1] of 9.10.

Compound `CCOC(=O)c1oc2cnccc2c1Nc1ccc2c(O)cccc2c1` had a pIC50 in data set [1] of 8.96.

Regarding `CC(C)NC(=O)c1oc2cnccc2c1Nc1ccc2c(O)cccc2c1`, in data set [1], the negative-log IC50 (pIC50) is 8.85. The pIC50 values of the last two compounds are within 0.2 log units of each other. Same read-out and setting: in the case of `CC(C)NC(=O)c1oc2cnccc2c1Nc1ccc2c(c1)Cc1c[nH]nc1-2` it was 7.42. Same read-out and setting: the figure for `CN(C)/C=C/NC(=O)c1oc2cnccc2c1Nc1ccc2c(O)cccc2c1` is 8.30. Still for that read-out and setting: the figure for `CN1CCN(Cc2cnc(-c3oc4cnccc4c3Nc3ccc4c(O)cccc4c3)nc2)CC1` is 8.70; for `O=C(Nc1ncccn1)c1oc2cnccc2c1Nc1ccc(Cl)c(O)c1` it is 8.80. `O=C1CCc2cc(Nc3c(-c4ncccn4)oc4cnccc34)ccc21` had a pIC50 in data set [1] of 7.80. Still for that read-out and setting: in the case of `CCOC(=O)c1oc2cnccc2c1Nc1ccc(Cl)c(O)c1` it was 8.64; in that of `CCOC(=O)c1oc2cnccc2c1Nc1ccc2c(O)c(F)ccc2c1`, 8.52. In the case of `Clc1ccc(Nc2c(-c3ncccn3)oc3cnccc23)c2cn[nH]c12`, in data set [1], the pIC50 is 8.38. In addition, the Papp in data set [2] is < 2 ×10⁻⁶ cm/s. In data set [1], `O/N=C1\NCc2cc(Nc3c(-c4ncccn4)oc4cnccc34)ccc21` showed a negative logarithm of the IC50 (pIC50) of 9.30. In turn, `CCOC(=O)c1oc2cnccc2c1Nc1cnc2ccccc2c1` had a negative-log IC50 (pIC50) in data set [1] of 7.52.

In data set [1], `CC(C)NC(=O)c1oc2cnccc2c1Nc1ccc(Cl)c(O)c1` gave a pIC50 of 8.40.

Regarding `CCOC(=O)c1oc2cnccc2c1Nc1ccc2ccccc2c1`, the pIC50 in data set [1] is 6.75. The same measure, in the same setting: the figure for `CC(C)NC(=O)c1oc2cnccc2c1Nc1ccc2c(c1)CN/C2=N\O` is 8.28; for `Fc1ccc(Nc2c(-c3ncccn3)oc3cnccc23)c2cn[nH]c12` it is 8.70.

Consider `Cc1ccc(Nc2c(-c3ncccn3)oc3cnccc23)c2cn[nH]c12`, for which the negative-log IC50 (pIC50) in data set [1] is 8.62.

Compound `c1cnc(-c2oc3cnccc3c2Nc2ccc3c(c2)Cc2c[nH]nc2-3)nc1` showed a negative-log IC50 (pIC50) in data set [1] of 8.40. This compound came in with a Cmax in data set [3] of 2220 ng/mL. The same compound gave an AUC(0-inf) in data set [4] of 10400 ng·h/mL. Besides, the Papp in data set [2] was > 8 ×10⁻⁶ cm/s. For `CCOC(=O)c1oc2cnccc2c1Nc1ccc2c(c1)CCC2=O`, in data set [1], the negative logarithm of the IC50 (pIC50) is 7.03. On the same count and under the same terms, the figure for `CN/C=C/NC(=O)c1oc2cnccc2c1Nc1ccc2c(c1)Cc1c[nH]nc1-2` is 7.37. On to `Clc1ccc2[nH]ncc2c1Nc1c(-c2ncccn2)oc2cnccc12`, for which, in data set [1], the negative logarithm of the IC50 (pIC50) is 6.62. In addition, the peak level in data set [3] (Cmax) was 3730 ng/mL. Further, in data set [4], the AUC(0-inf) is 17000 ng·h/mL. The Papp in data set [2] is 2 ×10⁻⁶ cm/s. With `CCOC(=O)c1oc2cnccc2c1Nc1ccc2c(c1)CC/C2=N/O`, the negative logarithm of the IC50 (pIC50) in data set [1] is > 8.70. Turning to `NCCCc1n[nH]c2c(Cl)ccc(Nc3c(-c4ncccn4)oc4cnccc34)c12`, the pIC50 in data set [1] is 8.37. Same read-out and setting: the figure for `c1cnc(-c2oc3cnccc3c2Nc2cccc3[nH]ncc23)nc1` is 7.85; for `Clc1cc(Nc2c(-c3ncccn3)oc3cnccc23)c2cn[nH]c2c1` it is 8.24; for `Cc1cc(Nc2c(-c3ncccn3)oc3cnccc23)c2cn[nH]c2c1Cl` it is 9.52.
